Test results from article PMC9851200, “Multiparameter phenotypic screening for endogenous TFEB and TFE3 translocation identifies novel chemical series modulating lysosome function” (Autophagy, 2022).

Legend:
[1] = test system: endogenous TFEB; assay: TFEB nuclear translocation, immunocytochemistry high-content imaging; assay type: cell-based; settings: PKIS2 primary screening
[2] = molecular target: CSNK1E (Homo sapiens, UniProt P49674); settings: cited from earlier work
[3] = test system: SH-SY5Y cells; settings: PKIS2 primary screening; for DQ Intensity: DQ Red BSA intensity; for DQ Spot: DQ Red BSA spot count; as to all read-outs here: reference of the scale not given here
[4] = molecular target: T1, PRKD3 (Homo sapiens, UniProt O94806); settings: cited from earlier work
T1 sequence (O94806 1-890): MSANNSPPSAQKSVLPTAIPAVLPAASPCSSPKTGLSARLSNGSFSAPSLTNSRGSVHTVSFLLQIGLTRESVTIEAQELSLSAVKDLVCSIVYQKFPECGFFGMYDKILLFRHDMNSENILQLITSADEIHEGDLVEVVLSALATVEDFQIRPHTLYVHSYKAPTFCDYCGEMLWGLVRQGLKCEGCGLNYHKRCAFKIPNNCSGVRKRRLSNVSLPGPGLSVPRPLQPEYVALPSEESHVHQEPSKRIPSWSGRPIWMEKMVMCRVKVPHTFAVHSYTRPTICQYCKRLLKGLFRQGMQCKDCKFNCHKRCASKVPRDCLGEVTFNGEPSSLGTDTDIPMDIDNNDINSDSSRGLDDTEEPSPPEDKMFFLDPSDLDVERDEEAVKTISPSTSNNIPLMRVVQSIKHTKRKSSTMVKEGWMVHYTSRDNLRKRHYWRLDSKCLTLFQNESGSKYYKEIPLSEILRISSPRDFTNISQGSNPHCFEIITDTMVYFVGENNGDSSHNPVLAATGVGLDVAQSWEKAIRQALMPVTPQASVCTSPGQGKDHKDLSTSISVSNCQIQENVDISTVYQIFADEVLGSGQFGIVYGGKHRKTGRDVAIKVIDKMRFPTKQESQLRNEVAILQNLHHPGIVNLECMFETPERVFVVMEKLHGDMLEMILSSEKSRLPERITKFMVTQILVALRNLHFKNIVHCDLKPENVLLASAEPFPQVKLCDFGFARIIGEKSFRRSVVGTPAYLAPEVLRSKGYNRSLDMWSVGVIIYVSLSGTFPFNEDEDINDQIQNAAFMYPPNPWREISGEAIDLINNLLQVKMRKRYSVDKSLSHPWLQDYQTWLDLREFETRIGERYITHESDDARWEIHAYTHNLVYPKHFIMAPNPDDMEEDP

[5] = molecular target: CDC42BPB/MRCKB (Homo sapiens, UniProt Q9Y5S2); settings: cited from earlier work
[6] = molecular target: T2, JAK1(JH2) (Homo sapiens, UniProt P23458); settings: cited from earlier work
T2 construct: JAK1(JH2)

[7] = test system: endogenous TFE3; assay: TFE3 nuclear translocation, immunocytochemistry high-content imaging; assay type: cell-based; settings: for TFE3 %: PKIS2 primary screening; for nTFE3 %: primary screen, 1 µM, 24 h, SH-SY5Y
[8] = molecular target: PIKFYVE (Homo sapiens, UniProt Q9Y2I7); settings: cited from earlier work
[9] = molecular target: T3, PRKD2 (Homo sapiens, UniProt Q9BZL6); settings: cited from earlier work
T3 sequence (Q9BZL6 1-878): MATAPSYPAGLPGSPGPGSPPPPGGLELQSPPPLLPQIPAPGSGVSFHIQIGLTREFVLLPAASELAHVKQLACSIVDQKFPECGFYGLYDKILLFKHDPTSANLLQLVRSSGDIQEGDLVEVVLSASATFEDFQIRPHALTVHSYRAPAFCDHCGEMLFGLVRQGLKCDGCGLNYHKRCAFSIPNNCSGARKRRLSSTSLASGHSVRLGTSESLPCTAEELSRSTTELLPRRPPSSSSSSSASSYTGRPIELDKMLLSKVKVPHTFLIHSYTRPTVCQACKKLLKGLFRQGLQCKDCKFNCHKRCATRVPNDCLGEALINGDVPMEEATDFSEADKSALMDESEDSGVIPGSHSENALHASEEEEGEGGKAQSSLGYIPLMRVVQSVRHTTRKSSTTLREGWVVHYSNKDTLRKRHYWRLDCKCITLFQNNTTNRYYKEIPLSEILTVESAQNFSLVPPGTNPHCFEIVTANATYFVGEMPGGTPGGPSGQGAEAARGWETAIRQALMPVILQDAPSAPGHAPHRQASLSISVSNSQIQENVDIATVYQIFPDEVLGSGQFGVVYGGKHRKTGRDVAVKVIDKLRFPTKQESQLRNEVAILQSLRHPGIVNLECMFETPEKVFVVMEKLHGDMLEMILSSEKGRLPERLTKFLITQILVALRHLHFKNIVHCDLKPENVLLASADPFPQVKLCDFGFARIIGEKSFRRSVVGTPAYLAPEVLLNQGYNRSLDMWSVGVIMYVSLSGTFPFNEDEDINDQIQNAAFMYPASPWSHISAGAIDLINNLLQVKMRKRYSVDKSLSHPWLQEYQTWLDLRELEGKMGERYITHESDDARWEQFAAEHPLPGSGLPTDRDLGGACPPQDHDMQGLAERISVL

[10] = molecular target: T4, ACVR1B (Homo sapiens, UniProt P36896); settings: cited from earlier work
T4 sequence (P36896 24-505): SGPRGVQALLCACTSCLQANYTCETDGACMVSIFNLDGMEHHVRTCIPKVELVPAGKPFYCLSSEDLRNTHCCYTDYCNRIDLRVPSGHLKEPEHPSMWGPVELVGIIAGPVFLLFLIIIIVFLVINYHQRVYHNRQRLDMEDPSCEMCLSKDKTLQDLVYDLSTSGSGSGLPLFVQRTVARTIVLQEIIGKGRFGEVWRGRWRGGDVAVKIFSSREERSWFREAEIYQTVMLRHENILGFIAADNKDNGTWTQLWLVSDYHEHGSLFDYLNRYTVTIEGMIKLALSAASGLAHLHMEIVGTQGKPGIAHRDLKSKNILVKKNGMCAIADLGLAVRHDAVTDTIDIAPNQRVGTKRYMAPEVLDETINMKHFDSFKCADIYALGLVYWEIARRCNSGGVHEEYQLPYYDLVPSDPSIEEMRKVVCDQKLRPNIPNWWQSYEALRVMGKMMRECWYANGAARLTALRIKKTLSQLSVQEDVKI

[11] = molecular target: CDC42BPG/DMPK2 (Homo sapiens, UniProt Q6DT37); settings: cited from earlier work

T2 sequence (P23458 583-855 limits assumed): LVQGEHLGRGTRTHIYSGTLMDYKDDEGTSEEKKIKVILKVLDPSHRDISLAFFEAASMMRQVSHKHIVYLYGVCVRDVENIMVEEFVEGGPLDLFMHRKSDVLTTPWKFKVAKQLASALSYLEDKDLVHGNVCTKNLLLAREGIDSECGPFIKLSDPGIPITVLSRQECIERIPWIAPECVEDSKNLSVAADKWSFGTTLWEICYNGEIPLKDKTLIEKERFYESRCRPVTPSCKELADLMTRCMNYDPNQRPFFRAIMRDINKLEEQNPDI
Chain of PIKFYVE (Q9Y2I7 whole entry): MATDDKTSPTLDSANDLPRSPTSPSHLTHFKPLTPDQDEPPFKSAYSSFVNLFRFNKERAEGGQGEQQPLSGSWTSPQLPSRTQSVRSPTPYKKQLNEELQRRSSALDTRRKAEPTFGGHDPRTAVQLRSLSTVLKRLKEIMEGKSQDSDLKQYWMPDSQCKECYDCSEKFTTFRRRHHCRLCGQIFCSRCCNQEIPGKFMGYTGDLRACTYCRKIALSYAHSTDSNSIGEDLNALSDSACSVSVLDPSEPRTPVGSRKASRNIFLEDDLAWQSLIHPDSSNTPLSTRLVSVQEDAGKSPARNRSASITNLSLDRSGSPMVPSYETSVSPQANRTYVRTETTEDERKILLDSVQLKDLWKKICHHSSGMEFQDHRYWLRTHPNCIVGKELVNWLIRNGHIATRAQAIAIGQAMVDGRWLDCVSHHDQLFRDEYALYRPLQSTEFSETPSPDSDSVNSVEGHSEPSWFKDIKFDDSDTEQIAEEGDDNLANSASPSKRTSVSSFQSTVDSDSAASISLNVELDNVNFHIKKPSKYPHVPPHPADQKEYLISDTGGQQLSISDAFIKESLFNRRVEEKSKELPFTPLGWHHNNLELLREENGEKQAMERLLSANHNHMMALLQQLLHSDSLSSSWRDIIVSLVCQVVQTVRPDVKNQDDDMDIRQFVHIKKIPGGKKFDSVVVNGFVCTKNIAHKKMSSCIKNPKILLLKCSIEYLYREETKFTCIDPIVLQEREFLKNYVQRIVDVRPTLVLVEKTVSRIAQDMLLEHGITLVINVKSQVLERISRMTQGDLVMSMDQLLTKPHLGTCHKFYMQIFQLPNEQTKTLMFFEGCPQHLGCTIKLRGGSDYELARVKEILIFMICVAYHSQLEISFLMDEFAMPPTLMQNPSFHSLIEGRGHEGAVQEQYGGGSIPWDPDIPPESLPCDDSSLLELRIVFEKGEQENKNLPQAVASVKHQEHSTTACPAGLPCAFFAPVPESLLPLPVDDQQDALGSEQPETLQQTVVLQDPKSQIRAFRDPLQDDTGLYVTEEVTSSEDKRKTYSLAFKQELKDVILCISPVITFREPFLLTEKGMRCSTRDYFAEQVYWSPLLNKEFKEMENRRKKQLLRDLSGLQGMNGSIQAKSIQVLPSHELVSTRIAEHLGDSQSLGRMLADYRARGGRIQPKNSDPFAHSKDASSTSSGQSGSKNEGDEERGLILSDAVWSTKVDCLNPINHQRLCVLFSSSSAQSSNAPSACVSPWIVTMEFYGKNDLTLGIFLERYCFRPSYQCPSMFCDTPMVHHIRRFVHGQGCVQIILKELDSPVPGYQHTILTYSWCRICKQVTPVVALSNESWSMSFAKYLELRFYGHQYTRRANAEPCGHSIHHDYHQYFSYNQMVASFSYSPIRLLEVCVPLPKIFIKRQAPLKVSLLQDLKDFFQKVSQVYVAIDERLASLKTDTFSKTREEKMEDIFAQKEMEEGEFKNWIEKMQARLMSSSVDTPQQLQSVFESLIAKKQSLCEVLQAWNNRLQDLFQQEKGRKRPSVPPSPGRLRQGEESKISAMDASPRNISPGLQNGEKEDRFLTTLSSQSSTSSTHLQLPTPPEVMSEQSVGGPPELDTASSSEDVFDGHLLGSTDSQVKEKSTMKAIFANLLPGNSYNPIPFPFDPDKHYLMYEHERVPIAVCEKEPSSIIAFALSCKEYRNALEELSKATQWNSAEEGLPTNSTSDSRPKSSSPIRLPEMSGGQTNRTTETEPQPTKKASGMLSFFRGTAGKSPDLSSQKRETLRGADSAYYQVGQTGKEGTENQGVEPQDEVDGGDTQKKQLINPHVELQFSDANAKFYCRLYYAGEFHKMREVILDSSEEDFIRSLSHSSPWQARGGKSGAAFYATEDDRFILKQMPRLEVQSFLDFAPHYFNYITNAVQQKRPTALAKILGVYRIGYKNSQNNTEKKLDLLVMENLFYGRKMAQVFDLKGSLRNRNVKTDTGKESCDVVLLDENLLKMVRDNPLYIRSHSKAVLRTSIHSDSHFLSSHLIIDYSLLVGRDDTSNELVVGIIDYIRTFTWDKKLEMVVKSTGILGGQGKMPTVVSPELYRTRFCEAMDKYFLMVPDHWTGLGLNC
Chain of CSNK1E (P49674 whole entry): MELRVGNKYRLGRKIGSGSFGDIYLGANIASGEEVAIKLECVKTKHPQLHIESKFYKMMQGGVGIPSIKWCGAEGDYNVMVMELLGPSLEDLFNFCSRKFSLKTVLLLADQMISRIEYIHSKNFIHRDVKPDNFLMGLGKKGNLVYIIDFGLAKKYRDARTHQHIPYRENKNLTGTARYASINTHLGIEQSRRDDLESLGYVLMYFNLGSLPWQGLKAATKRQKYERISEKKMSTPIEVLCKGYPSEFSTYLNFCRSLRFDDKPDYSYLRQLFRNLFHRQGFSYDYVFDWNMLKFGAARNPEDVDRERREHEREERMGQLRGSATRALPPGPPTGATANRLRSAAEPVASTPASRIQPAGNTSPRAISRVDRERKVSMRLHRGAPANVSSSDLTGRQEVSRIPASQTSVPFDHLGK
Chain of CDC42BPB/MRCKB (Q9Y5S2 whole entry): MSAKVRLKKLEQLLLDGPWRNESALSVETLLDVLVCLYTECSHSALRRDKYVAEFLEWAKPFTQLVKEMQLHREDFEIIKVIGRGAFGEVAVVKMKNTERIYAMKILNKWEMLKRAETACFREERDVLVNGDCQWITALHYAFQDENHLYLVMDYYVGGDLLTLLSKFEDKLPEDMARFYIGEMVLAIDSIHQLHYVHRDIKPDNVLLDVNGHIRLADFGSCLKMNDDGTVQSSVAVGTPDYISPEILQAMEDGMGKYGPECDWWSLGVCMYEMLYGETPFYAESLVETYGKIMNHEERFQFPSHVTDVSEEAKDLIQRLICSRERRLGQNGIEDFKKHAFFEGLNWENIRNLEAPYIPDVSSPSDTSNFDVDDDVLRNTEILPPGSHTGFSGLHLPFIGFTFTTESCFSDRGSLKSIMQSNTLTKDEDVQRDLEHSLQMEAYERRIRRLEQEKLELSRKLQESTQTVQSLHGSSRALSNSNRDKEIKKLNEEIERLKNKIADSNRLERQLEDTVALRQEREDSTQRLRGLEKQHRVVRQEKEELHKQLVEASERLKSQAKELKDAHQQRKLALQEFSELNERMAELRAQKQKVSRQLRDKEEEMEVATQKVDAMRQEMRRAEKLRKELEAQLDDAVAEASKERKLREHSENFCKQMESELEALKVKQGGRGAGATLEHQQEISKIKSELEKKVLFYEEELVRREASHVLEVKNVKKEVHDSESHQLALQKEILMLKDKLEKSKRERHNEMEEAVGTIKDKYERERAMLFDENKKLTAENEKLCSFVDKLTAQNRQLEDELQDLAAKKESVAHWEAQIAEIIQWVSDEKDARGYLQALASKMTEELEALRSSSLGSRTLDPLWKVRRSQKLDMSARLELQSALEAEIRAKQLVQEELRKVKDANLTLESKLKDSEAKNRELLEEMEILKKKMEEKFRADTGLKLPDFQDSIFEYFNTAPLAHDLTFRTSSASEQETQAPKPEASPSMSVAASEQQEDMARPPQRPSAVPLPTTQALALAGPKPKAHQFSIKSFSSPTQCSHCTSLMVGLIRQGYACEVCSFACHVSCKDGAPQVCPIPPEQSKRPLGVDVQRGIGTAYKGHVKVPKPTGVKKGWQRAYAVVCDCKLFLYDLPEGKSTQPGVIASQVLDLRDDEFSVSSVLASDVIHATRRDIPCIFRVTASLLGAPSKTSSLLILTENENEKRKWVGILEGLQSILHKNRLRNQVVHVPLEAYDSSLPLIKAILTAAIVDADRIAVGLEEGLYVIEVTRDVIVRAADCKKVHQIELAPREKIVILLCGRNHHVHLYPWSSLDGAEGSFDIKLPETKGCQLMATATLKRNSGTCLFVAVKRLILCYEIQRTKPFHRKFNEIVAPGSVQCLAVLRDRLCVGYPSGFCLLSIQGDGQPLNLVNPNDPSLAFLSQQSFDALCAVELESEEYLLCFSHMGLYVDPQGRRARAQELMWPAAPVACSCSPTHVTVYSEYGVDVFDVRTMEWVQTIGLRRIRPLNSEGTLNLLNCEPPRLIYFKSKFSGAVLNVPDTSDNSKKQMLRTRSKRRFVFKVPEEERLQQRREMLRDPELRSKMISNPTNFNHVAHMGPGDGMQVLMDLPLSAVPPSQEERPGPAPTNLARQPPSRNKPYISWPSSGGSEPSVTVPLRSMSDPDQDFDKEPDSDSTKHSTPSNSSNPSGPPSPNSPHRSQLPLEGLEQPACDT

SMILES | TFEB % [1] [%] | KINOMEscan binding CSNK1E [2] [%] | DQ Intensity [3] | DQ Spot [3] | KINOMEscan binding PRKD3 [4] [%] | KINOMEscan binding CDC42BPB/MRCKB [5] [%] | KINOMEscan binding JAK1(JH2) [6] [%] | TFE3 % [7] [%] | nTFE3 % [7] [%] | KINOMEscan binding PIKFYVE [8] [%] | KINOMEscan binding PRKD2 [9] [%] | KINOMEscan binding ACVR1B [10] [%] | KINOMEscan binding CDC42BPG/DMPK2 [11] [%]
Cc1cccc(-c2nc(Nc3ccncc3)c3ccccc3n2)n1 [GW855857] | 6.50 | 77 | 79.80 | 95.73 | 69 | 63 | 74 | 15.51 | 15.5 | 57 | 99 | 94.3 | 76
Cc1cccc(-c2nc(Nc3ccc4nn[nH]c4c3)c3ccccc3n2)n1 [GW867587] | 14.22 | 0 | 114.16 | 102.41 | 66 | 2 | 52 | 12.03 | 12 | 13 | 98.1 | 0 | 0
Cc1cccc(-c2nc(Nc3ccc4ncsc4c3)c3ccccc3n2)n1 [GW867588] | 27.23 | 6 | 95.27 | 103.18 | 66 | 33 | 62 | 18.78 | 18.7 | 54 | 99.8 | 35 | 9
Cc1csc(-c2nc(Nc3ccncc3)c3ccccc3n2)n1 [GW869640] | 2.75 | 41 | 86.86 | 102.29 | 71 | 44 | 74 | 13.20 | 13 | 78 | 78 | 94.7 | 35
Cc1cccc(-c2nc(Nc3ccncc3)c3sccc3n2)n1 [GW869641] | 20.32 | 94.9 | 90.97 | 102.97 | 90.7 | 98.5 | 90.2 | 6.93 | 6.9 | 86 | 99.6 | 96.5 | 98.5
Cc1cc(Nc2nc(-c3cccc(C)n3)nc3ccccc23)ccn1 [GW872411] | 5.91 | 31 | 103.32 | 114.14 | 76 | 0 | 81 | 20.21 | 20.2 | 53 | 99.9 | 73 | 2
Clc1cccc(-c2nc(Nc3ccncc3)c3ccccc3n2)c1 [GW873004] | 4.68 | 23 | 102.26 | 118.51 | 44 | 42 | 16 | 19.51 | 19.5 | 61 | 45 | 72 | 84
Cc1cccc(-c2nc(Nc3cccc(C(N)=O)c3)c3ccccc3n2)n1 [GW876019] | 7.94 | 15 | 115.76 | 107.41 | 87 | 32 | 78 | 17.52 | 17.5 | 16 | 66 | 83 | 0
